MIC and ED50 data for 2 molecules are collected here from US4308380A, “2-Lower alkyl-2 or 3-cephem-4-carboxylic acid derivatives” (Fujisawa Pharmaceutical Co., Ltd., priority 1973, dated 1981).

In assay [1] the test system is Bacillus subtilis ATCC-6633. Kind of assay: in vitro antimicrobial activity, two-fold agar-plate dilution method, B. subtilis ATCC-6633. In kind it is cell-based. Particulars: read-out: minimum inhibitory concentration (MIC). On the procedure: (§1) In vitro antimicrobial activity was determined by the two-fold agar-plate dilution method as described below.
(§2) One loopful of an overnight culture of each test strain in Trypticase-soy broth (10^8 viable cells per ml) was streaked on heart infusion agar (HI-agar) containing graded concentration of antibiotics, and the minimum inhibitory concentration (MIC) was expressed in terms of meg/ml after incubation at 37° C. for 20 hours.
(§3) The data in Table 1 below present a comparison between the 2-(C1 -C6 alkyl)-cephem compounds of the present invention and known cephem compounds structurally analogous to the present compounds, differing only by alkyl substitution in the 3-position. The in vitro tests of antimicrobial activity of the compared compounds were determined by the two-fold agar plate dilution method described as follows:
(§4) One loopful of an overnight culture of each test strain in Trypticase-soy broth (10^8 viable cells per ml) was streaked on heart infusion agar (HI sugar) containing graded concentration of antibiotics, and the minimum inhibitory concentration (MIC) was expressed in terms of mcg/ml after incubation at 37° C. for 20 hours.

Assay [2] deals with Staphylococcus aureus 206. Kind of assay: in vitro antimicrobial activity, two-fold agar plate dilution method, S. aureus 206. In kind it is cell-based. Particulars: Table 1, S. aureus 206, 37° C., 20 hours, read-out: minimum inhibitory concentration (MIC). On the procedure: (§5) The in vitro tests of antimicrobial activity of the compared compounds were determined by the two-fold agar plate dilution method described as follows: […]

The subject of assay [3] is E. coli 327. The experiment in a line: in vitro MIC against E. coli 327 at different inoculum sizes (Table 2). In kind it is cell-based.
For assay [4], the system named is Staphylococcus aureus 278. Kind of assay: in vitro antimicrobial activity, two-fold agar plate dilution method, S. aureus 278. In kind it is cell-based. Particulars: Table 1, S. aureus 278, 37° C., 20 hours, read-out: minimum inhibitory concentration (MIC). On the procedure:
as §5

The subject of assay [5] is Staphylococcus aureus 213. The experiment in a line: in vitro antimicrobial activity, two-fold agar plate dilution method, S. aureus 213. In kind it is cell-based. Particulars: Table 1, S. aureus 213, 37° C., 20 hours, read-out: minimum inhibitory concentration (MIC). On the procedure: as §5
Assay [6] concerns Staphylococcus aureus 277. The experiment in a line: in vitro antimicrobial activity, two-fold agar plate dilution method, S. aureus 277. In kind it is cell-based. Particulars: Table 1, S. aureus 277, 37° C., 20 hours, read-out: minimum inhibitory concentration (MIC). On the procedure: as §5
Assay [7] deals with Staphylococcus aureus 226. The experiment in a line: in vitro antimicrobial activity, two-fold agar plate dilution method, S. aureus 226. Particulars: Table 1, S. aureus 226, 37° C., 20 hours, read-out: minimum inhibitory concentration (MIC). The class given is cell-based. How it is done: as §5
Assay [8] relates to Staphylococcus aureus 209 P JC-1. The experiment in a line: in vitro antimicrobial activity, two-fold agar-plate dilution method, S. aureus 209 P JC-1. In kind it is cell-based. The settings on record: read-out: minimum inhibitory concentration (MIC). On the procedure:
as §1, §2, §3, §4

In assay [9] the test system is E. coli 327. Kind of assay: protecting effect against experimental infections in mice. The class given is in vivo, mice (male ICR strain). Particulars: E. coli 327, intraperitoneal inoculation 8.5×10^2 cells/mouse, subcutaneous one hour after challenge, survival after one week, probit method. On the procedure:
The following test describes the method of estimating the protecting effects of Applicants' compound (18) versus cited […], "Keflex", against experimental infections in mice.
Male ICR strain mice aged 4 weeks, each weighing 20-23 g were used in groups of 8 mice. The organisms precultured overnight at 37° C. on HI-agar were suspended in 5% mucin solution to obtain cell concentrations of 8.5×10^2 cells/mouse. Mice were inoculated intraperitoneally with 0.5 ml of the suspension. Each of the test antibiotics was given subcutaneously to the mice one hour after challenge. The ED50 values were found by the probit method from the number of surviving mice after one week of observation.

[10] abbreviates: Escherichia coli, 327, E. coli 327, inoculum size 10^4.
The mark [11] stands for this setting: Escherichia coli, 327, E. coli 327, inoculum size 10^6.
The mark [12] stands for this setting: Escherichia coli, 327, E. coli 327, inoculum size 10^8.

The structures appear in SMILES notation. In brackets after ≈: the same amount, converted by molar mass. Where two headings read alike, the source gives them in different places.

`CC1=C(C(=O)O)N2C(=O)C(NC(=O)C(N)c3ccccc3)[C@H]2SC1` (stereo partly shown) [cited compound (18), 3-Methyl-7-(2-phenylglycyl)amino-3-cephem-4-carboxylic acid, reference compound]: the MIC in assay [1] (ATCC6633, 20 h) stood at 1.56 µg/mL (≈ 4.49 µM); in assay [2], 6.25 µg/mL (≈ 18 µM); against E. coli 327 [3] (setting [10]) it was 6.25 µg/mL (≈ 18 µM); against E. coli 327 [3] (setting [11]) it was 12.5 µg/mL (≈ 36 µM); in the assay with E. coli 327 [3] (setting [12]), 100 µg/mL (≈ 288 µM); in [4] it was 3.13 µg/mL (≈ 9.01 µM). For the same molecule, the MIC in assay [5] worked out at 12.5 µg/mL (≈ 36 µM); in assay [6] it was 3.13 µg/mL (≈ 9.01 µM); in assay [7], 12.5 µg/mL (≈ 36 µM); in assay [8] (209PJC1, 20 h), 3.13 µg/mL (≈ 9.01 µM). The ED50 with E. coli 327 [9] was determined as 1.06 mg/mouse.
As for `CC1C=C(C(=O)O)N2C(=O)C(NC(=O)C(N)c3ccccc3)C2S1` (stereo not shown) [Applicants' compound (18), 2-Methyl-7-(2-phenylglycyl)-amino-3-cephem-4-carboxylic acid], the MIC worked out at 1.56 µg/mL (≈ 4.49 µM) in [1] (ATCC6633, Table 1, B. subtilis ATCC-6633, 37° C., 20 hours); 12.5 µg/mL (≈ 36 µM) in assay [2]; 12.5 µg/mL (≈ 36 µM) with E. coli 327 [3] (setting [10]); 50 µg/mL (≈ 144 µM) with E. coli 327 [3] (setting [11]); 100 µg/mL (≈ 288 µM) in the assay on E. coli 327 [3] (setting [12]); 25 µg/mL (≈ 72 µM) in assay [4]. Moreover, the MIC stood at 50 µg/mL (≈ 144 µM) in assay [5]; 12.5 µg/mL (≈ 36 µM) in assay [6]; 25 µg/mL (≈ 72 µM) in [7]; 6.25 µg/mL (≈ 18 µM) in assay [8] (209PJC1, Table 1, S. aureus 209 P JC-1, 37° C., 20 hours). In the assay with E. coli 327 [9], the ED50 is on record as 0.25 mg/mouse.
